Entries after “also recorded” stand apart in the source; their conditions may differ.
What was measured:
[1] = test system: endothelial cells (HUVEC); assay: Binding of biotinylated ADOPep to endothelial cells by FACS; set-up: species or system human
Procedure: FIG. 3 is a FACS analysis depicting the binding (in percentages) of biotinylated ADOPep1 (ADOPep1^Biot), an ADAM15 derived peptide (SEQ ID NO:2), to endothelial cells (EC) under normoxia. Biotinylated ADOPep1 at 0.05, 0.5 and 5 microgram/ml (μg/ml) were added to endothelial cells.
FIG. 4 is a FACS analysis depicting the binding (in total counts) of Biotinylated ADOPep1 to endothelial cells under normoxia and hypoxia conditions. […] X axis—Intensity of binding.
Human umbilical endothelial cells (HUVEC) were harvested by trypsin and 100,000 cells per sample were suspended in PBS+5% FCS+0.1% Na azide. Endothelial cells were either exposed for 5 hours to hypoxia or remained under normoxia conditions. Cells were stained for 2 hours on ice in dark with 0.05, 0.5, 5 μg/100,000 cells biotinylated ADOPeps. The cells were then washed twice with PBS, following which the cells were stained for 30 minutes with FITC-labeled Streptavidin (Jackson ImmunoResearch Laboratories, PA, USA). After washing, samples were analyzed using a fluorescence activated cell sorter (FACScan Beckton Dickinson, Calif., USA).

[2] = test system: endothelial cells; assay: Hypoxia-induced apoptosis of endothelial cells (Annexin V FITC/PI FACS); assay type: cell-based, human; conditions: for effect on hypoxia-induced apoptosis of endothelial cells / percent apoptosis (PI/Annexin V): 24 hours hypoxia; for effect on hypoxia-induced apoptosis of endothelial cells: peptides 10 ng/ml; for percent apoptosis (PI/Annexin V): FIGS. 24a-d, hypoxia alone 79.3%
Procedure: FIG. 17 is a histogram depicting the effect of ADOPep1 on hypoxia-induced apoptosis of endothelial cells. Endothelial cells were exposed for 24 hours hypoxia in the presence of endothelial cell growth medium supplemented with 5% fetal calf serum (FCS), followed by incubation under hypoxia conditions with ADOPep1 (10 ng/ml) or anti-GRP78 antibody (100 ng/ml). Cells (100,000/tube) were incubated with Annexin-V FITC/PI for endothelial cell apoptosis determination. […] Similarly, anti-GRP78 antibody induced a reduction in apoptosis up to 32%.
FIGS. 24a-d are FACS analyses depicting hypoxia induced apoptosis. Endothelial cells were incubated for 24 hours under hypoxia conditions in the absence (FIG. 24a) or presence of 10 ng/ml of ADOPepe1 (FIG. 24b), peptide of Motif A (FIG. 24c) or peptide of motif C (FIG. 24d) and the level of apoptosis was determined using FACS analysis and the PI (shown on the Y axis)/Annexin V (shown on the X axis) markers.
FIG. 25 is a bar graph depicting the inhibition of hypoxia induced apoptosis by ADOPep 1, Motif A and Motif B. Endothelial cells were incubated for 24 hours under hypoxia conditions in the absence or presence of 10 ng/ml of ADOPepe1, Motif A, Motif B or motif C and the level of apoptosis was determined using FACS analysis and quantified as the percent of Annexin V and PI positive cells. The results represent average±standard deviation of 4 independent experiments.
FIGS. 33a-f are representative FACS analyses depicting a specific inhibition of hypoxia-induced apoptosis of endothelial cells by ADOPep1. Endothelial cells in Petri dishes were incubated for 24 hours with 5% FCS in supplement-free endothelial cell growth medium under normoxia (FIGS. 33a and d), exposed to 24 hours hypoxia (Figures c and f) or incubated under normoxia with 100 micromolar per 100,000 cells CoCl2 (FIGS. 33b and e), in the absence (FIGS. 33a-c) or presence (FIGS. 33d-f) of 10 ng/ml Adopep1 peptide (for 24 hours). Cells were trypsinized and immediately re-suspended in PBS with 5% FCS and 0.1% Na-azide. Samples containing 100,000 cells were tested for apoptosis using the Annexin-FITC (X axis) and propidium iodide (Y axis) kit (Bender Medsystems, Vienna, Austria), according to manufacturer's instructions. Results were analyzed by FACScan (Beckton Dickinson).
EC were incubated for 24 hours with 5% FCS in EC growth media in Petri dishes plates followed by 24 hours incubation under hypoxia conditions with ADOPep1 (10 ng/ml), anti GRP78 antibody (Santa Cruz Biotechnology, Calif., USA) (1 microgram/ml) or recombinant VEGF (10 ng/ml). The Annexin V FITC/PI detects the phosphatidylserin on the apoptotic cells using flow cytometry. Human Annexin V-FITC kit (Bender Medsystems, Vienna, Austria) was used for the measurement of EC apoptosis percentage following manufacturer's instructions. Samples were analyzed using a fluorescence activated cell sorter (FACScan Beckton Dickinson, Calif., USA).

[3] = test system: mouse ischemic hind limb; assay: Histological assessment of angiogenesis in ischemic hind limb (von Willebrand Factor VIII staining); assay type: in vivo
Procedure: FIG. 8 is a graph depicting histological assessment of angiogenesis in the ischemic hind limb treated with ADOPep1. Mice were subjected to hind limb ligation and ADOPep administration as described in FIG. 7 and at the noted days (0, 7, 14 and 21 days) post hind limb ligation the mice were sacrificed and legs were embedded in paraffin. Sections were stained with anti von Willebrand factor and the number of Factor VIII positive vessels was determined using the Image Pro Plus software. Shown are the average blood vessel densities (of 10 individual microscopical fields per sample) expressed as number of capillaries per millimeter squared in histological sections of mouse hind limb ischemia treated with ADOPep1.
FIGS. 9a-b are microscopical images of histological sections subjected to von Willebrand Factor immuno-staining of mouse hind limb ischemia 21 days following injection of ADOPep1 (FIG. 9a) or PBS (FIG. 9b). […]
Limbs from mice treated with ADOPep 1, 3 or control mice injected with PBS were sacrificed at 7, 14 and 21 days post operation. […] Vessel densities were expressed as capillaries per millimeter squared. To obtain the average vessel number per cross-section area, a minimum of ten individual fields were sampled, and Image Pro-Plus (MediaCybernetics, Silver spring, MD, USA) was used to measure the counted area. The number of Factor VIII positive vessels was counted.

[4] = test system: endothelial cells; assay: Inhibition of binding of biotinylated ADOPep1 to endothelial cells by motif peptides; set-up: species or system human; conditions: normoxia, peptides 0.01, 0.1 or 1 ng/ml, ADOPep1^Biot 2 μg/ml
Procedure: FIG. 23 is a graph depicting the inhibition of binding of ADOPep1^Biot (2 μg/ml) to endothelial cells by specific peptides corresponding to conserved motifs from the ADOPeps. Endothelial cells were incubated for 2 hours under normoxia conditions in the presence of increasing concentrations (0.01, 0.1 or 1 ng/ml) of peptides having the amino acid sequences corresponding to Motif A (HWRRP; SEQ ID NO:7), Motif B (HWRRA; SEQ ID NO:8), Motif C (AHLLP; SEQ ID NO:6) or non-biotinylated ADOPep1 (SEQ ID NO:2) and then were incubated for 1 hour with biotinylated ADOPep1 (2 μg/ml) and the binding of biotinylated ADOPep1 to endothelial cells was determined using HRP-streptavidin.

HWRRAHLLPRLP [ADOPep1, ADAM15 derived peptide, amino acids 286-297 of the metalloprotease domain]
binding to endothelial cells under hypoxia versus normoxia ([1]; 5 micrograms per 100,000 cells): increase in binding; also recorded: increased under hypoxia | percent binding of biotinylated ADOPep1 to endothelial cells ([1]; hypoxia 5 hours, 5 μg/ml): about 85% | percent binding of biotinylated ADOPep1 to endothelial cells ([1]; normoxia, maximal at 5 μg/ml): about 62% | effect on hypoxia-induced apoptosis of endothelial cells [2]: prevented apoptosis to levels which are similar to those seen under normoxic conditions; also recorded: capable of inhibiting the hypoxia induced apoptosis; also recorded: remarkable decrease in the stained cells; also recorded: significant inhibition of hypoxia induced apoptosis; also recorded: a significant fraction of hypoxia-induced apoptosis was inhibited | more efficient in decreasing apoptosis as compared to the anti-GRP78 antibody ([2]; FIG. 17, hypoxia): 29% | percent apoptosis of endothelial cells (Annexin-V/PI) ([2]; FIG. 17, hypoxia, ADOPep1 10 ng/ml, anti-GRP78 antibody 100 ng/ml): 25% | inhibition of hypoxia induced apoptosis ([2]; FIG. 34, 24 hours hypoxia, 10 ng/ml): approximately 40% | percent apoptosis (PI/Annexin V) ([2]; 10 ng/ml): 28.6% | blood vessel density (number of blood vessels per area) ([3]; 0.1 μg per mouse, days 7, 14, 21, vs PBS): significant increase (p<0.05) in the number of blood vessels; also recorded: significant increase in the blood vessel density | von Willebrand Factor staining of small vessels ([3]; 21 days following injection, vs PBS): higher von Willebrand Factor Positive stained small vessels; also recorded: significantly higher von Willebrand Factor staining of small vessels

HWRRP [Motif A, 5 amino acid motif peptide]
effect on hypoxia-induced apoptosis of endothelial cells [2]: capable of inhibiting the hypoxia induced apoptosis; also recorded: significant inhibition of hypoxia induced apoptosis | percent apoptosis (PI/Annexin V) ([2]; 10 ng/ml): 35.8% | inhibition of the binding of ADOPep1^Biot to endothelial cells [4]: significant inhibition

— patent publication US8741843B2, “Compositions and methods for inducing angiogenesis” (priority 2006, dated 2014)
